Legend:
proteasome = experiment: Proteasome activity in lysates of LAC-pretreated Jurkat cells (proteinase assay, sLLVY-MCA); format: cell-based; conditions: for proteasome activity in Jurkat cells: 3 h preincubation with LAC 6 μM
Protocol: B. The inhibitory effect of LAC on the proteasome activity was reversible in the cells Jurkat cells were pretreated with LAC (6 μM) in culture medium for 3 h. The cells were washed and recultured at 0.5×10^6 cells/ml for 0 h, 5 h or 21 h. The cells were then harvested, washed and sonicated. The lysate protein (20 μg/sample) was assayed for its proteinase activity under a condition at which 90% of the activity was attributed to the proteasome. The samples were in duplicates. The result is expressed as relative fluorescence intensity at 440 nm.
We used Jurkat cells that have high constitutive proteasome activity to evaluate the duration of LAC's effect once the drug entered the cells. Jurkat cells were treated with LAC (6 μM) for 3 h, which was sufficiently long for the compound to enter the cells as shown above. The cells were then thoroughly washed and recuitured, and they were harvested at 0 h, 5 h and 21 h after the wash, and the proteasome activity in the cell lysates was measured using a chromogenic chymotrypsin substrate. We have previously established that the proteinase activity measured by this assay was predominantly (more than 90%) derived from the proteasome (Wang et al., 1997, Eur. J. Immunol., supra).

[1] = system: human peripheral blood mononuclear cells; experiment: Aggregate formation of PHA-stimulated PBMC; format: cell-based; conditions: 2 μg/ml PHA plus 10 μM lactacystin; 24 h
From the text: (§1) Cell-cell interaction is essential in antigen presentation and in T cell's help to T and B cells. The adhesion molecules are necessary to establish the cell-cell interaction. Blocking the adhesion molecules ICAM-1 and LFA-1 is known to inhibit immune responses and to suppress graft rejection. […] Therefore, inhibition of the proteasome activity will be a useful way to control undesirable immune responses during graft rejection, autoimmune diseases, and inflammation.

ICAM-1 = ICAM-1 expression on 2C TCR transgenic lymph node T cells (flow cytometry); format: cell-based, mouse; conditions: Con A plus 10 μM lactacystin; 24 h and 48 h
Protocol: After 24 h and 48 h, the cells were examined for ICAM-1 expression by flow cytometry, using FITC-anti-ICAM-1/1B2-PE. Monoclonal Ab 1B2 recognize a clonotypic determinant on the TCR of the transgenic T cells which are largely CD8 positive (>75%).
as §1

Jurkat cells = experiment: Respiration (O2 consumption) of Jurkat cells, oxygen electrode; format: cell-based
From the text: The function of Complex I of digitonin (Dig)-permeated Jurkat cells was blocked by rotenone (Rot), and the respiration was resumed by adding succinate (Suc), which provides electrons to Complex II directly and thus bypasses Complex I. The maximal respiration was achieved by adding CCCP (carbonyl cyanide m-chlorophenylhydrazone), which uncouples the oxidation and phosphorylation. The respiration could be blocked by antimycin A (Ant), which inhibits […]. Curves 1 and 6 represent positive controls of rat kidney mitochondria. Curves 2 and 5 represent normals untreated Jurkat cells. Curves 3 and 4 represent Jurkat cells treated with lactacystin (6 μM) for 2 h and 4 h, respectively.
Complex III in the respiration chain was blocked at Complex III antimycin (Ant), and the electron flow was resumed by addiind ascorbate (Asc) and TMPD (tetramethyl-p-phenyl-enediamine).
The assay system is identical to that described in FIG. 16. Jurkat cells were treated with LAC for 4 h (curve 3). The decoupling reagent used in this experiment to achieve maximal respiration is FCCP (carbonylcyanide-p-trifluoromethoxyphenylhydrazone).
The Jurkat Cells (JC) (30×10^6/ml) or rat kidney proximal tubules mitochondria (RKM) (0.5 mg of protein/ml) were incubated in 1 ml measuring chamber at 37° C. in a respiration buffer containing 200 mM sucrose, 5 mM MgCl2, 5 mM KH2PO4, and 30 mM HEPES-Tris (pH 7.5). During respiration experiments following substrates and inhibitors were used: 0.005% Digitonine (Dig); 10 mM Succinate (Suc); 1 mM Ascorbate (Asc); 0.4 mM tetramethyl-p- phenylenediamine (TMPD); 1 μM CCCP, 1 μM FCCP; 0.1 μM Rotenone (Rot); 50 nM Antimycin A (Anti); 1 mM KCN; 100 μM Cytochrome C (Cyt C). The respiration rate of the Jurkat Cells and mitochondria was measured polarographically with a Clarke oxygen electrode (Yellow Springs Instruments, Yellow Springs, Ohio, U.S.A.) using 1 ml thermojacketed chamber. Oxygen concentration was calibrated with air-saturated buffer using Hypoxanthine—Xanthine Oxidase—Catalase system (“chemical zero”). Oxygen consumption was continuously recorded using a “MacLab/8” (Analog Digital Instruments, U.S.A.) connected to a Macintosh SE computer and the MacLab Chart v.3.3.4 software. Rates of oxygen consumption are expressed as ng-atoms of oxygen/min.

CDK2 = experiment: Immunoprecipitation kinase assay, CDK2; format: cell-based, human; conditions: PHA-activated T cells; LAC 10 μM added once at 0 h; at 16 h and more so at 40 h
Protocol: Tonsillar T cells were activated with PHA (2 μg/ml) for a period as indicated in each graph. LAC (10 μM) was added once at 0 h. The cells were harvested at 16 h, 24 h, or 40 h as indicated. An equal amount of lysate protein ([…]) was precipitated with rabbit anti-CDK4, anti-CDK2 or anti-Cyclin E antisera (2.5 μg Ab/sample). The immune complexes were assayed for their kinase activities using histone H1 as a substrate. (A) CDK4 kinase activity. (B) CDK2 kinase activity. (C) Cyclin E-associated CDK activity. The membrane in (C) was subsequently hybridized with anti-Cyclin E (1 μg/ml) followed by ^125I-protein A for the evaluation of the protein level of Cyclin E.
Therefore, the proteasome activity during the early activation stage (0 h-16 h) is essential for the activation of the kinase at the G1 phase and early S phase. The unchanged CDK4 activity in the LAC-treated cells at 40 h served as an internal control for the repressed CDK2 activity and indicating the latter was not due to the viability problem.
Lymphocytes were lysed by a lysis buffer as used in the immunoblotting (Chen et al., 1996, supra), and cleared lysates were quantitated for their protein content. […] The proteins were then transferred to PVDF membranes and the signals were detected by autoradiography.

CC(=O)N[C@@H](CSC(=O)[C@]1([C@@H](O)C(C)C)NC(=O)[C@H](C)[C@@H]1O)C(=O)O [LAC, lactacystin]
active duration within the cell and in the culture media (proteasome): about 16 h | proteasome activity in Jurkat cells (proteasome; 0 h after wash): almost completely inhibited | proteasome activity in Jurkat cells (proteasome; 5 h after wash): still significantly inhibited | proteasome activity in Jurkat cells (proteasome; 21 h after wash): returned to a near-normal level | time in which LAC loses its activity in the cells (proteasome; Jurkat cells after 3 h LAC 6 μM and wash): ≤ 21 h | aggregate formation [1]: effectively block the aggregate formation | upregulation of ICAM-1 on CD8 positive T cells (ICAM-1): effectively block the upregulation of ICAM-1 | respiration after Complex I blockage (rotenone) on adding succinate (Jurkat cells; LAC 6 μM for 4 h): could not be resumed by adding succinate | O2 consumption after Complex III (ascorbate and TMPD) (Jurkat cells; LAC for 4 h): could not be resumed by ascorbate and TMPD | O2 consumption after the addition of ascorbate and TMPD (Jurkat cells; LAC for 4 h, FCCP as decoupling reagent): reduced augmentation of O2 consumption | electron transport of the respiratory chain (Jurkat cells; within 4 h): reduce the electron transport at the complex IV | CDK2 kinase activity (CDK2): significantly inhibited

Source: patent publication US20020049157A1, “Use of proteasome inhibitors for treating cancer, inflammation, autoimmune disease, graft rejection and septic shock” (priority 1998, published 2002)
